Drawing on patent US11352356B2, “Inhibitors of plasma kallikrein and uses thereof” (Takeda Pharmaceutical Company Limited, priority 2018, dated 2022), this text covers EC50 for 14 molecules.

human activated kallikrein enzyme, sequence (P03952 391-638): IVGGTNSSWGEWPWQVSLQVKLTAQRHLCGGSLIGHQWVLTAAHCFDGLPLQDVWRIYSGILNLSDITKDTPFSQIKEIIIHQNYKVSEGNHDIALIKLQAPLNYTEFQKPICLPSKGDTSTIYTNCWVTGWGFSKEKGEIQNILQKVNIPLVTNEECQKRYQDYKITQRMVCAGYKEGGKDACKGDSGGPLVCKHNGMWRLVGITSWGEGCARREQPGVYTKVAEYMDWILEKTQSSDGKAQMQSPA
human activated kallikrein enzyme, sequence (P03952 20-390 partner): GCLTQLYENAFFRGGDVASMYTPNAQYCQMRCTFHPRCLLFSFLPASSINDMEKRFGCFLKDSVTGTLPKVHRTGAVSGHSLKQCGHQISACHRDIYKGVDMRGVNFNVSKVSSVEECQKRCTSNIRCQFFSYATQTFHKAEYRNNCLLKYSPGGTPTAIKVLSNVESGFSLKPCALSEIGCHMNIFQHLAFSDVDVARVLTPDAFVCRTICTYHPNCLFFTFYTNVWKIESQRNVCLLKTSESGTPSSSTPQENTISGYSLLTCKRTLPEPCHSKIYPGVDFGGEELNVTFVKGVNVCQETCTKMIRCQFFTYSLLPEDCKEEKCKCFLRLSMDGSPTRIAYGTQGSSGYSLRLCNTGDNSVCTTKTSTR

One experiment has as its target human activated kallikrein enzyme (Homo sapiens (Human), UniProt P03952). The experiment in a line: Inhibition of human activated plasma kallikrein, fluorogenic peptide substrate assay, 500 pM enzyme format. As to conditions: 500 pM activated kallikrein, 300 uM Pro-Phe-Arg-7-amido-4-methylcoumarin substrate, 30 min preincubation, 10 min reaction at RT; read-out: Primary Dose Response Assay: Average EC50. Type of experiment: biochemical. The protocol: Example compounds were evaluated for inhibition of the human activated kallikrein enzyme in two formats of an assay employing a fluorogenic peptide substrate. In one assay format, the concentrations of reagents were as follows: 20 mM Tris pH 7.5, 1 mM EDTA, 150 mM sodium chloride, 0.1% PEG-400, 0.1% Triton X-100, 500 pM activated kallikrein enzyme, 300 uM Pro-Phe-Arg-7-amido-4-methylcoumarin substrate. Prior to reaction initiation with substrate, enzyme and inhibitors were preincubated for 30 min at RT. After initiation with substrate, reactions were incubated for 10 min at RT and fluorescence emission at 460 nm from 380 nm excitation measured with a microplate reader. In another assay format, the concentrations of reagents were as follows: 20 mM Tris pH 7.5, 1 mM EDTA, 150 mM sodium chloride, 0.1% PEG-400, 0.1% Triton X-100, 5 pM activated kallikrein enzyme, 300 uM Pro-Phe-Arg-7-amido-4-methylcoumarin substrate. Prior to reaction initiation with substrate, enzyme and inhibitors were preincubated for 30 min at RT. After initiation with substrate, reactions were incubated for 18 h at RT and fluorescence emission at 460 nm from 380 nm excitation measured with a microplate reader.
One may read the EC50 as the concentration needed to bring the measured effect to its halfway point. For the molecule `COc1ccc2nc(CNC(=O)c3cnn(Cc4cn5ccc(C6CC6)cc5n4)c3)cn2c1` [I-12, 1-((7-cyclopropylimidazo[1,2-a]pyridin-2-yl)methyl)-N-((6-methoxyimidazo[1,2-a]pyridin-2-yl)methyl)-1H-pyrazole-4-carboxamide], the EC50 was 10 to 100 nM.

As for “N-((7-chloroimidazo[1,5-a]pyridin-1-yl)methyl)-1-((8-(1-(hydroxymethyl)cyclopropyl)imidazo[1,2-a]pyridin-2-yl)methyl)-1H-pyrazole-4-carboxamide [I-117]”, the EC50 was < 1 nM.

In the case of “1-(2-((4-(((7-chloroimidazo[1,5-a]pyridin-1-yl)methyl)carbamoyl)-1H-pyrazol-1-yl)methyl)imidazo[1,2-a]pyridin-8-yl)cyclopropane-1-carboxylic acid [I-116]”, the EC50 is 1 to 10 nM.

Turning to `O=C(NCc1ncn2ccc(Cl)cc12)c1cnn(Cc2cn3nc(C4CC4)ccc3n2)c1` [I-11, N-((7-chloroimidazo[1,5-a]pyridin-1-yl)methyl)-1-((6-cyclopropylimidazo[1,2-b]pyridazin-2-yl)methyl)-1H-pyrazole-4-carboxamide], the EC50 was in the range of 1 to 10 nM.

`O=C(NCc1ncn2ccc(Cl)c(F)c12)c1cn(Cc2cn3cc(C4CC4)cc(CC(F)C(=O)O)c3n2)nn1` (centres unmarked) [I-224b, 3-(2-((4-(((7-chloro-8-fluoroimidazo[1,5-a]pyridin-1-yl)methyl)carbamoyl)-1H-1,2,3-triazol-1-yl)methyl)-6-cyclopropylimidazo[1,2-a]pyridin-8-yl)-2-fluoropropanoic acid]: the EC50 is < 1 nM.

In the case of “N-((7-chloro-8-fluoroimidazo[1,5-a]pyridin-1-yl)methyl)-1-((8-(2-cyano-2-methylpropyl)-6-cyclopropylimidazo[1,2-a]pyridin-2-yl)methyl)-1H-pyrazole-4-carboxamide [I-237]”, the EC50 is < 1 nM.

Take `O=C(NCc1ncn2ccc(Cl)c(F)c12)c1cn(Cc2cn3ccccc3n2)nn1` [I-286, N-((7-chloro-8-fluoroimidazo[1,5-a]pyridin-1-yl)methyl)-1-(imidazo[1,2-a]pyridin-2-ylmethyl)-1H-1,2,3-triazole-4-carboxamide]: the EC50 was 10 to 100 nM.

On to `CCOC(=O)CCn1c(Cn2cc(C(=O)NCc3ncn4ccc(Cl)c(F)c34)nn2)cc2cc(C3CC3)ccc21` [I-251a, Ethyl 3-(2-((4-(((7-chloro-8-fluoroimidazo[1,5-a]pyridin-1-yl)methyl)carbamoyl)-1H-1,2,3-triazol-1-yl)methyl)-5-cyclopropyl-1H-indol-1-yl)propanoate], for which the EC50 lay within 1 to 10 nM.

As to `O=C(NCc1ncn2ccc(Cl)c(F)c12)c1cn(Cc2ccc3nccnc3c2)nn1` [I-292, N-((7-chloro-8-fluoroimidazo[1,5-a]pyridin-1-yl)methyl)-1-(quinoxalin-6-ylmethyl)-1H-1,2,3-triazole-4-carboxamide], the EC50 was in the range of 10 to 100 nM.

Turning to “Ethyl 1-(2-((4-(((7-chloroimidazo[1,5-a]pyridin-1-yl)methyl)carbamoyl)-1H-pyrazol-1-yl)methyl)imidazo[1,2-a]pyridin-8-yl)cyclopropane-1-carboxylate [I-115]”, the EC50 was < 1 nM.

Take `O=C(NCc1ncn2ccc(Cl)c(F)c12)c1cn(Cc2cc3ccc(C4CC4)cc3o2)nn1` [I-219, N-((7-chloro-8-fluoroimidazo[1,5-a]pyridin-1-yl)methyl)-1-((6-cyclopropylbenzofuran-2-yl)methyl)-1H-1,2,3-triazole-4-carboxamide]: the EC50 fell in the range of 10 to 100 nM.

As for “N-((7-chloroimidazo[1,5-a]pyridin-1-yl)methyl)-1-((6-cyclopropyl-8-(2-methoxyethoxy)imidazo[1,2-a]pyridin-2-yl)methyl)-1H-pyrazole-4-carboxamide [I-103]”, the EC50 was < 1 nM.

On to `CC(C)(C(=O)O)C(O)c1cc(C2CC2)cn2cc(Cn3cc(C(=O)NCc4ncn5ccc(Cl)c(F)c45)nn3)nc12` (centres unmarked) [I-241b, 3-(2-((4-(((7-chloro-8-fluoroimidazo[1,5-a]pyridin-1-yl)methyl)carbamoyl)-1H-1,2,3-triazol-1-yl)methyl)-6-cyclopropylimidazo[1,2-a]pyridin-8-yl)-3-hydroxy-2,2-dimethylpropanoic acid], for which the EC50 was < 1 nM.

The experiment is the same for the next values; noted with them: comparative compounds; 500 pM activated kallikrein format; read-out: Primary Dose Response Assay: Average EC50.
As to `Cc1ccn2cc(Cn3cc(C(=O)NCc4cnc5ccc(Cl)cn45)cn3)nc2c1` [reference compound], the EC50 lay in the range of 100 to 2000 nM.
